This is an account of results in US4207326A, “Antimicrobial quaternary pyrazole derivatives” (Cilag-Chemie A.G., priority 1979, dated 1980).

One test concerns P. aeruginosa. The experiment in a line: Antibacterial activity: Minimum Inhibitory Concentration. Conditions: for MIC: Pseudomonas aeruginosa, read-out: Minimum Inhibitory Concentration. The test is classed as cell-based, Pseudomonas aeruginosa ATCC 9027. The protocol:
(§1) The antimicrobial activity was determined by inoculation of the test microorganism into suitable growth media containing solutions of the compounds at concentrations of 100, 50, 10, 5, 1.0, 0.5 and 0.1 μg/ml. The reference antibiotics used were Gentamicin for the antibacterial tests and Amphotericin B for the antimycotic and antifungal tests. After incubation the antimicrobial activity was recorded as the Minimal Inhibitory Concentration (M.I.C.), i.e., the lowest concentration preventing macroscopically visible growth, for each test compound against each organism.
(§2) An initial solution of each formula (I) compound to be tested in sterile distilled water was prepared at a concentration of 1000 μg/ml. With appropriate dilutions using sterile distilled water, additional solutions were prepared at concentrations of 500, 100, 50, 10, 5 and 1 μg/ml.
They were cultured and maintained on Tryptone Soy Agar (Oxoid CM 131), with the addition of 10% horse blood for the S. pyogenes.
To prepare the organisms as inocula for the test, slopes of this medium were streaked with the organisms and incubated at 37° C. for 24 hours. 4.5 Ml volumes of Brian-Heart Infusion Broth (Oxoid CM 225) were then inoculated with a platinum loop from the agar slope cultures and incubated for 24 hours at 37° C. The final inocula were then prepared by adding 0.1 ml aliquots of the Brain-Heart Infusion Broth cultures to 100 ml volumes of sterile physiological saline.
(a) For the test on each of the bacterial strains and each of the test and reference compounds, a series of 8 tubes containing 4.5 ml volumes of Brain-Heart Infusion Broth (Oxoid CM 225) were prepared. To 7 of these were added 0.5 ml volumes of the final solutions of the test compouns, giving final concentrations in the broths of 100, 50, 10, 5, 1.0, 0.5 and 0.1 μg/ml. To the eighth tube in each series was added 0.5 ml of the solvent used and diluted as for the preparation of the 1000 μg/ml solution of the compound. This tube was used as the growth control. The tubes were inoculated with 0.02 ml aliquots of the inocula prepared in accordance with "(a) Bacteria" above, and incubated at 37° C. for 24 hours. The tubes were then examined for evidence of bacterial growth as shown by turbidity of the medium and the lowest concentration of the test compound which prevented bacterial growth was recorded as the Minimal Inhibitory Concentration. This test procedure was carried out on two separate days.

The next test deals with A. fumigatus. The experiment in a line: Antifungal activity: Minimum Inhibitory Concentration. The test is classed as cell-based, Aspergillus fimigatus (A. fumigatus) NCPF 2140. The following applies: A. fumigatus, 27° C., one week; for MIC: Aspergillus fumigatus, read-out: Minimum Inhibitory Concentration. Here is the method: as §1, §2
(§3) The A. corymbifera, A. fumigatus, S. schenkii, T. rubrum, T. mentagrophytes, M. canis and P. verrucosa strains were all maintained on Sabouraud-Dextrose Agar (Oxoid CM 41) by incubating for 14 days at 27° C. To prepare the inocula 30 ml volumes of Sabouraud-Liquid medium (Oxoid CM 147) were inoculated from the agar cultures and incubated at 27° C. until heavy uniform growth resulted. The mycelial growth was then broken up by shaking with glass beads.
(§4) 1 Ml aliquots were removed from each of the cultures for the purpose of making viable counts and the cultures were then held at 4° C. The viable counts were made by preparing serial ten-fold dilutions of the cultures in sterile physiological saline and spreading on plates of Sabouraud-Dextrose Agar (Oxoid CM 41) which were then incubated at 27° C. for 14 days. When the viable counts had confirmed that each of the inocula contained approximately 10^6 colony forming units (C.F.U.) per ml the cultures were withdrawn from the refrigerator and used as the inocula for the tests.
(§5) (c) For the tests on each of the remaining seven strains and each of the test and reference compounds, a series of 8 tubes containing 4.5 ml volumes of Sabouraud-Liquid Medium (Oxoid CM 147) were prepared. To 7 of these were added 0.5 ml volumes of the final solutions of the test compounds, giving final concentrations in the broths of 100, 50, 10, 5, 1.0, 0.5 and 0.1 μg/ml. To the eighth tube in each series was added 0.5 ml of the solvent used and diluted as for the preparation of the 500 μg/ml solution of the compound. This tube was used as a growth control. The tubes were then inoculated with 0.1 ml aliquots of the inocula prepared as in "(b) Fungi" above. The tubes were then incubated at 27° C. with continuous shaking for a period of one week. The tubes were then examined for evidence of growth as shown by the presence of mycelial growth in the medium and the lowest concentration of the test compound which prevented fungal growth was recorded as the Minimal Inhibitory Concentration. This test procedure was carried out on two separate days.

The next test relates to T. rubrum. Described as above. The test is classed as cell-based, Trichophyton rubrum NCPF 197. Conditions: T. rubrum, 27° C., one week; for MIC: Trichophyton rubrum, read-out: Minimum Inhibitory Concentration. Here is the method:
as §1, §2, §3, §4, §5

The subject of the next test is T. mentagrophytes. The description is as above. Format: cell-based, Trichophyton mentagrophytes NCPF 410. Conditions: T. mentagrophytes, 27° C., one week; for MIC: Trichophyton mentagrophytes, read-out: Minimum Inhibitory Concentration. Here is the method: as §1, §2
T. mentagrophytes NCPF 410
as §3, §4, §5

For a further test, the system named is M. canis. The test is described as above. The test is classed as cell-based, Microsporum canis NCPF 351. Conditions: M. canis, 27° C., one week; for MIC: Microsporum canis, read-out: Minimum Inhibitory Concentration. Here is the method: as §1, §2, §3, §4, §5
Another test concerns P. verrucosa. The test is described as above. The test is classed as cell-based, Phialophore verrucosa NCPF 1119. Conditions: P. verrucosa, 27° C., one week; for MIC: Phialophora verrucosa, read-out: Minimum Inhibitory Concentration. Here is the method: as §1, §2, §3, §4, §5
[1] abbreviates: P. aeruginosa, Day 1, 37° C., 24 hours.
The mark [2] stands for this setting: P. aeruginosa, Day 2, 37° C., 24 hours.

Where two headings read alike, the source gives them in different places.

For the molecule “2,3(5)-dimethyl-1-dodecyl-pyrazolium methosulfate [Example 8-A]”, the “Minimum Inhibitory Concentration” value worked out at 50 µg/mL with P. aeruginosa (setting [1]); 50 µg/mL with P. aeruginosa (setting [2]); 100 µg/mL in the test on A. fumigatus (Day 1); 100 µg/mL in the test with A. fumigatus (Day 2); 5 µg/mL with T. rubrum (Day 1); 10 µg/mL in the test on T. rubrum (Day 2). The “Minimum Inhibitory Concentration” value was 5 µg/mL in the test on T. mentagrophytes (Day 1); 5 µg/mL with T. mentagrophytes (Day 2); 5 µg/mL in the test on M. canis (Day 1); 1 µg/mL in the test on M. canis (Day 2); 10 µg/mL with P. verrucosa (Day 1); 10 µg/mL with P. verrucosa (Day 2).

Turning to “2,3(5)-dimethyl-1-hexadecyl-pyrazolium methosulfate [Example 9]”, the “Minimum Inhibitory Concentration” value in the test with P. aeruginosa (setting [1]) is 10 µg/mL; with P. aeruginosa (setting [2]), 10 µg/mL; with A. fumigatus (Day 1) it was 5 µg/mL; in the test on A. fumigatus (Day 2), 10 µg/mL; in the test on T. rubrum (Day 1), 5 µg/mL; in the test with T. rubrum (Day 2), 5 µg/mL. Also, the “Minimum Inhibitory Concentration” value is 5 µg/mL in the test with T. mentagrophytes (Day 1); 5 µg/mL in the test with T. mentagrophytes (Day 2); 5 µg/mL with M. canis (Day 1); 5 µg/mL in the test with M. canis (Day 2); 5 µg/mL in the test on P. verrucosa (Day 1); 10 µg/mL with P. verrucosa (Day 2).

In the case of `CCCCCCCCCCCC[n+]1c(C)cc(C)n1Cc1ccc(Cl)cc1Cl.[Br-]` [Example 6-B, 2-(2,4-dichlorobenzyl)-3,5-dimethyl-1-dodecyl-pyrazolium bromide], the MIC in the test on P. aeruginosa (setting [1]) was determined as 10 µg/mL; in the test with P. aeruginosa (setting [2]), 10 µg/mL; in the test on A. fumigatus (Day 1) it was 5 µg/mL; in the test on A. fumigatus (Day 2), 5 µg/mL; in the test on T. rubrum (Day 1) it was 5 µg/mL; in the test with T. rubrum (Day 2), 1 µg/mL. Also, the MIC with T. mentagrophytes (Day 1) was 1 µg/mL; in the test on T. mentagrophytes (Day 2) it was 1 µg/mL; in the test on M. canis (Day 1), 5 µg/mL; with M. canis (Day 2), 5 µg/mL; in the test on P. verrucosa (Day 1), 5 µg/mL; in the test on P. verrucosa (Day 2), 5 µg/mL.

`CCCCCCCCCCCCCCCC[n+]1c(C)cc(C)n1C.Cc1ccc(S(=O)(=O)[O-])cc1` [Example 6-C, 1-hexadecyl-2,3,5-trimethylpyrazolium p-toluene sulfonate]: the MIC came to 5 µg/mL in the test with P. aeruginosa (24 h) and 10 µg/mL in the test with P. aeruginosa. Also, the “Minimum Inhibitory Concentration” value in the test with A. fumigatus (Day 2), in the test with T. rubrum (Day 2), in the test on T. mentagrophytes (Day 1), in the test on M. canis (Day 2) and in the test on P. verrucosa (Day 2) was 5 µg/mL each time.

Consider `C=CCn1c(C)cc(C)[n+]1CCCCCCCCCCCCCCCC.[Br-]` [Example 7, 2-allyl-3,5-dimethyl-1-hexadecyl-pyrazoliumbromide], for which the MIC was found to be 50 µg/mL with P. aeruginosa (setting [1]); 10 µg/mL with P. aeruginosa (setting [2]); 10 µg/mL in the test on A. fumigatus (Day 1); 50 µg/mL in the test with A. fumigatus (Day 2); 1 µg/mL with T. rubrum (Day 1); 1 µg/mL with T. rubrum (Day 2). Moreover, the MIC with T. mentagrophytes (Day 1) was 1 µg/mL; with T. mentagrophytes (Day 2), 5 µg/mL; with M. canis (Day 1), 5 µg/mL; in the test on M. canis (Day 2), 10 µg/mL; with P. verrucosa (Day 1), 5 µg/mL; in the test with P. verrucosa (Day 2) it was 5 µg/mL.

`CCCCCCCCCCCCCCCCn1c(C)cc(C)[n+]1C` [Example 2, 1-hexadecyl-2,3,5-trimethyl-pyrazolium methosulfate]: the MIC in the test with P. aeruginosa (setting [1]) turned out to be 10 µg/mL; with P. aeruginosa (setting [2]), 5 µg/mL; in the test on A. fumigatus (Day 1), 10 µg/mL; with A. fumigatus (Day 2) it was 5 µg/mL; in the test on T. rubrum (Day 1), 5 µg/mL; in the test with T. rubrum (Day 2), 5 µg/mL. The MIC in the test with T. mentagrophytes (Day 1) is 1 µg/mL; in the test on T. mentagrophytes (Day 2), 5 µg/mL; with M. canis (Day 1), 10 µg/mL; in the test with M. canis (Day 2), 5 µg/mL; in the test on P. verrucosa (Day 1) it was 5 µg/mL; in the test on P. verrucosa (Day 2), 10 µg/mL.

On to `CCCCCCCCCCCCn1ccc[n+]1C` [Example 3-E, 1-dodecyl-2-methy-pyrazolium methosulfate], for which the MIC stood at 50 µg/mL in the test with P. aeruginosa (setting [1]); 50 µg/mL in the test with P. aeruginosa (setting [2]); 50 µg/mL with A. fumigatus (Day 1); 10 µg/mL in the test on A. fumigatus (Day 2); 5 µg/mL with T. rubrum (Day 1); 5 µg/mL with T. rubrum (Day 2). Further, the MIC in the test with T. mentagrophytes (Day 1) is 1 µg/mL; in the test with T. mentagrophytes (Day 2), 5 µg/mL; with M. canis (Day 1), 10 µg/mL; with M. canis (Day 2), 10 µg/mL; in the test on P. verrucosa (Day 1), 5 µg/mL; with P. verrucosa (Day 2), 10 µg/mL.

On to `CCCCCCCCCCCCCC[n+]1c(C)cc(C)n1Cc1ccc([N+](=O)[O-])cc1.[Br-]` [Example 6-D, 3,5-dimethyl-2(4-nitrobenzyl)-1-tetradecyl-pyrazolium bromide], for which the MIC was 100 µg/mL in the test with P. aeruginosa (setting [1]); 50 µg/mL with P. aeruginosa (setting [2]); 50 µg/mL in the test with A. fumigatus (Day 1); 50 µg/mL in the test with A. fumigatus (Day 2); 10 µg/mL in the test with T. rubrum (Day 1); 10 µg/mL in the test with T. rubrum (Day 2). Besides, the MIC is 10 µg/mL with T. mentagrophytes (Day 1); 10 µg/mL with T. mentagrophytes (Day 2); 10 µg/mL with M. canis (Day 1); 5 µg/mL in the test on M. canis (Day 2); 10 µg/mL in the test on P. verrucosa (Day 1); 10 µg/mL with P. verrucosa (Day 2).
